Experimental data taken from patent publication EP0994713B1, “USE OF A 7alpha-METHYL-17alpha-ETHYNYL-ESTRANE DERIVATIVE FOR THE TREATMENT OF ATHEROSCLEROSIS” (Akzo Nobel N.V., priority 1997, dated 1998).

What was measured:
Type in all cases: in vivo, New Zealand White rabbits
[1] = tested on: female ovariectomized rabbits; experiment: Fatty streaks in the aortic arch (Sudan Red, image analysis); conditions: for Fatty streak in aortic arch: cholesterol diet, OVX, necropsy at 20 weeks
Method: (§1) The model is considered relevant to the human atherosclerotic process, because the cellular events occurring during the development of the atherosclerotic lesions during the atherogenic diet are similar to those observed in different stages of atherosclerotic processes in coronary arteries.
An experiment was performed with 7 groups of sexually mature, virgin female New Zealand White rabbits (Harlan, Zeist, The Netherlands), age 7-9 months and weighing approximately 3 kg (number of […] per group: 13-14). During the acclimatization period the rabbits were fed a diet of standard commercial rabbit chow LKK20 (Hope Farms, Woerden, The Netherlands). Three weeks prior to the start of the experiment the animals were anaesthetized and underwent bilateral ovariectomy (OVX) or were sham operated. After three weeks, at the start of the experiment, the rabbits were randomized over the treatment groups. In all animals de-endothelialisation of a segment of the left carotid artery was applied by using the air-drying technique (Fishman, J.A. et al., "Endothelial regeneration in the rat carotid artery and the significance of endothelial denudation in the pathogenesis of myointimal thickening", Lab. Invest. 1975, 32, 339-351; and Lafont, A. et al., "Restenosis and experimental angioplasty: Intimal, medial and adventitial changes associated with constructive remodeling", Circulation Research, 1995, 76, 996-1002)
The animals were randomly allocated into 7 experimental groups using a randomized block design. The groups were fed an atherogenic diet (commercial rabbit chow (LKK20) enriched with 0.4 grams cholesterol, 3.75 grams coconut oil and 3.75 grams peanut oil per 100 grams). One group was fed the standard rabbit chow (LKK20). Food intake was restricted to 80 grams daily.
The treatments (Table I) were daily administered orally as a tablet, prepared as in Example 1. Groups 1, 2 and 3 were on a daily placebo treatment. Groups 4-5 were treated with 7α-methyl-17α-ethynyl-17β-hydroxy-estra-5(10)-en-3-one (OD-14; tibolone; 6 or 2 mg daily); group 6 with 17β-estradiol (4 mg daily). Group 7 was on treatment with 17β-estradiol decanoate (150 µg in 1 ml arachis oil injected subcutaneously once a week).
(§2) During the experiment blood samples were drawn out of the central ear artery after sedation with Hypnorm (0.1 ml i.m.) (Janssen Pharmaceutics, Beerse, Belgium) before the daily treatment, at week 4,8,12,16 and 20, to monitor the plasma cholesterol levels and to measure, at week 17, plasma estradiol levels and plasma tibolone levels. Twenty weeks after the start of the experiment animals were anaesthetized by an i.m. injection of Hypnorm (0.5 ml/kg). After blood sampling the rabbits were killed by exsanguination and the aortic arch, uterus and carotid artery removed for further analyses.
(§3) In addition to example 2 an additional experiment was performed with two lower doses of Org OD14 and a higher dose of estradiol decanoate. […] The procedures were identical to those in example 2.
(§4) Three weeks prior to the start of the experiment the animals were ovariectomized. At the start of the experiment the carotid artery was de-endothelialised using the air-drying technique. The normal rabbit chow was replaced by the atherogenic diet except for the control group which received during the experiment the normal rabbit chow.
(§5) The treatments (table II) of group 1, 2, 3 and 4 were daily administered orally as a tablet, prepared as in example 1. The doses of Org OD14 per tablet, however, were 0.6 mg and 0.15 mg respectively. Group 5 was on treatment with 17β-estradiol decanoate (300 µg in 1 ml arachis oil injected subcutaneously once a week). Twenty weeks after the start of the experiment was ended in the same manner as described in example 2.
The aortic arch was dissected free, opened longitudinally and fixed in 2% paraformaldehyde. The tissue was then stained for lipids using 0.3% (w/v) Sudan Red. Colour photographs were taken of all segments. […]

[2] = tested on: female ovariectomized rabbits; experiment: Plasma cholesterol levels, cholesterol fed rabbit model; conditions: for Mean plasma cholesterol exposure: cholesterol diet, OVX, 20 weeks
Method: as §1
An experiment was performed with 7 groups of sexually mature, virgin female New Zealand White rabbits (Harlan, Zeist, The Netherlands), age 7-9 months and weighing approximately 3 kg (number of […] per group: 13-14). During the acclimatization period the rabbits were fed a diet of standard commercial rabbit chow LKK20 (Hope Farms, Woerden, The Netherlands). Three weeks prior to the start of the experiment the animals were anaesthetized and underwent bilateral ovariectomy (OVX) or were sham operated. After three weeks, at the start of the experiment, the rabbits were randomized over the treatment groups.
The animals were randomly allocated into 7 experimental groups using a randomized block design. […] One group was fed the standard rabbit chow (LKK20). Food intake was restricted to 80 grams daily.
Groups 1, 2 and 3 were on a daily placebo treatment. Groups 4-5 were treated with 7α-methyl-17α-ethynyl-17β-hydroxy-estra-5(10)-en-3-one (OD-14; tibolone; 6 or 2 mg daily); group 6 with 17β-estradiol (4 mg daily). Group 7 was on treatment with 17β-estradiol decanoate (150 µg in 1 ml arachis oil injected subcutaneously once a week).
as §2, §4
Group 5 was on treatment with 17β-estradiol decanoate (300 µg in 1 ml arachis oil injected subcutaneously once a week).

[3] = tested on: female ovariectomized rabbits; experiment: Overall atherosclerotic lesion formation, cholesterol fed rabbit model; conditions: Example 3: Org OD14 0.6 mg orally daily; estradiol decanoate 300 µg s.c. weekly
Method: as §1, §3, §4, §5
In example 3 we tested Org OD14 at two lower doses (0.6 and 0.15 mg orally once daily) and estradiol decanoate at a higher dose (300 µg s.c. once weekly). […]

[4] = Example 2, Group 4: 6 mg orally daily
[5] = Example 2, Group 5: 2 mg orally daily
[6] = Example 2: Org OD14 2 and 6 mg, E2 4 mg orally daily, E2D 150 µg s.c. weekly
[7] = Example 3: 0.15 mg orally once daily
[8] = Example 3: 0.6 mg orally once daily

C#C[C@]1(O)CC[C@H]2[C@@H]3[C@H](C)CC4=C(CCC(=O)C4)[C@H]3CC[C@@]21C [Org OD14, 7α-methyl-17α-ethynyl-17β-hydroxy-estra-5(10)-en-3-one]
Fatty streak in aortic arch [1, 4]: 1.3 ± 0.8 % of arcus covered
Fatty streak in aortic arch [1, 5]: 1.4 ± 0.7 % of arcus covered
Fatty streak formation in the aortic arch (in words) [1, 6]: (nearly) completely prevented the fatty streak formation
Fatty streak in aortic arch [1, 7]: 23.5 ± 5.3 % of arcus covered
Fatty streak in aortic arch [1, 8]: 5.9 ± 2.4 % of arcus covered
Mean plasma cholesterol exposure [2, 4]: 11.2 ± 1.5 mmol/L/day
Mean plasma cholesterol exposure [2, 5]: 9.0 ± 1.3 mmol/L/day
plasma cholesterol levels (in words) [2, 6]: strongly reduced the plasma cholesterol levels
Mean plasma cholesterol exposure [2, 7]: 20.7 ± 1.5 mmol/L/day
Mean plasma cholesterol exposure [2, 8]: 12.8 ± 1.2 mmol/L/day
atherosclerotic lesion formation (in words) [3]: still nearly completely prevented
